According to US20110082037A1, “Adjuvant Compositions” (COGNIS IP MANAGEMENT GMBH, priority 2008, published 2011):
Counter-ions that a name gives are not always drawn.

What was measured:
[1] = system: Winter wheat (Triticum aestivum); assay: Greenhouse experiment: influence of adjuvants on glyphosate efficacy on wheat (fresh weight 21 DAT); format: in vivo; details: adjuvant 0.25% w/v
Procedure: (§1) Greenhouse experiments were conducted to investigate the potency of the mixtures of alkoxylated oligoglycosides and alkoxylated primary alcohols as adjuvants for glyphosate. Winter wheat (Triticum aestivum) was used as a model for difficult-to-wet grasses and black night-shade (Solanum nigrum) was used as a model plant with an easy-to-wet, but difficult-to-penetrate, leaf surface. Both were grown in a growth chamber under 14 hours of light, at 18/12(±0.5)° C. (day/night) temperature, and in 70/80(±5)% (day/night) relative humidity. Light was provided by high-pressure mercury lamps and fluorescent tubes to give 70 W/m^2 (PAR) at leaf level. The plants were grown in 11 cm diameter plastic pots filled with a mixture of sand and humic potting soil (1:2 by volume). The pots were placed on sub-irrigation matting which was wetted daily with half-strength nutrient solution. After emergence, the wheat seedlings were thinned to six plants/pot for the efficacy experiments. Black nightshade seedlings were thinned to one plant/pot. Black nightshade and wheat were treated at the three- and the four-leaf stage, respectively. The fresh weights of the plants were measured 14 days after treatment (DAT) for black nightshade and 21 DAT for wheat. The glyphosate solutions were applied with an air-pressured laboratory track sprayer with 1.2-mm nozzles fitted with a perforated (0.6 mm) whirling pin and delivering 200 L/ha at 303 kPa. These were added to the unformulated monoisopropylamine salt of glyphosate [MON 8717 (glyphosate IPA salt 648 gai/litre=2.84 M without adjuvant)] at a concentration of 0.25% (w/v). Demineralised water was used as the carrier.
(§2) Based on previous work, these rates were 77.8 gae/hectare (equivalent to 2.3 mM at 200 litres/hectare) on wheat and 30.4 gae/hectare (equivalent to 0.9 mM) on black nightshade. The experiments were conducted as a randomised complete block with four replicates. Two separate experiments were conducted for each of the two plant species. The data was subjected to analysis of variance using the Genstat statistical package (Release 6.1 from Rothamsted Experimental Station). The performance of the products on both species was expressed as a percentage of the FW of untreated plants. Examples 1 to 8 are according to the invention, examples C1 to C12 serve as comparison.

[2] = system: black nightshade SOLNI (Solanum Nigrum); assay: Greenhouse experiment: influence of adjuvants on glyphosate efficacy on black nightshade (fresh weight 14 DAT); format: in vivo; details: adjuvant 0.25% w/v
Procedure: as §1, §2

[3] = average of trials 1 and 2, glyphosate 2.3 mM
[4] = glyphosate 2.3 mM (77.8 g a.e./ha at 200 L/ha)
[5] = 0.6 mM glyphosate (20.3 g a.e./ha at 200 L/ha)
[6] = 0.9 mM glyphosate (30.4 g a.e./ha at 200 L/ha)

## O=C(O)CNCP(=O)(O)O [Gly, monoisopropylamine salt of glyphosate]
[1]; [3]
  Average % (FW as percentage of the FW of untreated plants): 78.3%
  Average g FW: 18.15 g
[1]; [4]
  Trial 1 g FW: 22.33 g
  Trial 2 g FW: 13.97 g
[2]; [5]
  Trial 2 % (FW as percentage of the FW of untreated plants): 84.5%
  Trial 2 g FW: 14.66 g
[2]; [6]
  Trial 1 % (FW as percentage of the FW of untreated plants): 35.1%
  Trial 1 g FW: 5.59 g
